Results on 28 molecules are retold here after patent US8440710B2, “HSL inhibitors useful in the treatment of diabetes” (Hoffmann-La Roche Inc., priority 2009, dated 2013).

pIC50: −log10 of the molar value.

The assay deals with T1, human HSL (Homo sapiens, UniProt Q05469).
T1 construct: generate a full length human HSL ORF with a 3′-His6 tag; made in house; host or cells: High 5 insect cells (baculovirus, pFast-BAC)
T1 sequence (Q05469 1-1076): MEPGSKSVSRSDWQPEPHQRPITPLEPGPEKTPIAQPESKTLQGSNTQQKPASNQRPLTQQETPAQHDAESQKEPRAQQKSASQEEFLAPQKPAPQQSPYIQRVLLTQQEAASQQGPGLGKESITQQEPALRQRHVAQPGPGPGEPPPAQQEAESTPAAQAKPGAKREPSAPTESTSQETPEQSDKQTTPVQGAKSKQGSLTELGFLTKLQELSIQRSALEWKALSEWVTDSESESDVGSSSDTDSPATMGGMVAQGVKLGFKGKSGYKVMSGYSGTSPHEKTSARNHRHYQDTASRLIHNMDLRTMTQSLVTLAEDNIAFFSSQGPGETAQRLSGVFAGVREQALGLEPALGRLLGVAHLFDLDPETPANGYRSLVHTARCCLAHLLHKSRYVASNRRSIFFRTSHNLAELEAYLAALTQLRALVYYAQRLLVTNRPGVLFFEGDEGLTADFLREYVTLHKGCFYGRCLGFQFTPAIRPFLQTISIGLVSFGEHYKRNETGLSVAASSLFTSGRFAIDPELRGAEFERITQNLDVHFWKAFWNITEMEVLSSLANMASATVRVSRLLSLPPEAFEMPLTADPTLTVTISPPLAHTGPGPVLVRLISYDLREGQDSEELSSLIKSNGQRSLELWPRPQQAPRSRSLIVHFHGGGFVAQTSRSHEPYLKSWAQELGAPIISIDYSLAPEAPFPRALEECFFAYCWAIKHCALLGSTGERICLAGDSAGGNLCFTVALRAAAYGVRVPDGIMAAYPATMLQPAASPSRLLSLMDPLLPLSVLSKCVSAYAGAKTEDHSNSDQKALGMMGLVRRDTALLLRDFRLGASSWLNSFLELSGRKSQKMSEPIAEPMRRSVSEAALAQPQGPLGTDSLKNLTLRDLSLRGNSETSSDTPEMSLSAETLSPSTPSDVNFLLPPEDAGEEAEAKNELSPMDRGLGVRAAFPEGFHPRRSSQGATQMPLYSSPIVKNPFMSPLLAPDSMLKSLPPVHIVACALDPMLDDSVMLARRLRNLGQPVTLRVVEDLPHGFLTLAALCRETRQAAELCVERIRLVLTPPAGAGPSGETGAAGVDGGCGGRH
In words: Human Hormone-Sensitive Lipase (HSL) enzyme inhibition assay (colorimetric, DMPT substrate). It is filed as biochemical. Conditions: human full length HSL-His6, 2,3-dimercapto-1-propanol tributyrate substrate, 37° C. 20 minutes, absorbance at 405 nm; read-out: HSL hum IC50. In a few lines: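 Full-length human HSL with C-terminal His6, expressed in baculovirus-infected High 5 cells and Ni-NTA purified, was added (15 ug/ml stock) to 1.5 mM DMPT in 100 mM MOPS pH 7.2, 0.2 mg/ml fatty acid-free BSA containing compound. After 20 min at 37 °C, DTNB with SDS/Triton X-100 was added; A405 read after 15 min at RT.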
The pIC50 is the negative decadic logarithm of the IC50, by convention in mol/L. Take `O=C1N(c2ccc(OC(F)(F)F)cc2)CC[C@]12CC[C@](O)(C(F)(F)F)CC2` [Example 113, (5α,8β)-8-Hydroxy-2-(4-trifluoromethoxy-phenyl)-8-trifluoromethyl-2-aza-spiro[4.5]decan-1-one]: the pIC50 is 5.66. As for `CC(C)OC[C@]1(O)CC[C@]2(CCN(c3ccc(O[C@@H](C)C(F)(F)F)nc3)C2=O)CC1` [Example 309, (5α,8α)-8-Hydroxy-8-isopropoxymethyl-2-[6-((S)-2,2,2-trifluoro-1-methyl-ethoxy)-pyridin-3-yl]-2-aza-spiro[4.5]decan-1-one], the figure is 8.00; as for `CC(C)(C)c1ccc(N2CC[C@]3(CC[C@@](O)(CN4CCCC4=O)CC3)C2=O)cc1` [Example 350, (5α,8α)-2-(4-tert-Butyl-phenyl)-8-hydroxy-8-(2-oxo-pyrrolidin-1-ylmethyl)-2-aza-spiro[4.5]decan-1-one], 8.00; as for `CC(C)[C@]1(O)CC[C@]2(CCN(c3ccc(OCC(F)(F)F)cc3)C2=O)CC1` [Example 103, (5α,8α)-8-Hydroxy-8-isopropyl-2-[4-(2,2,2-trifluoro-ethoxy)-phenyl]-2-aza-spiro[4.5]decan-1-one], 7.70. As for `CCOC[C@]1(O)CC[C@]2(CCN(c3ccc(C4CC4)cc3)C2=O)CC1` [Example 271, (5α,8α)-2-(4-Cyclopropyl-phenyl)-8-ethoxymethyl-8-hydroxy-2-aza-spiro[4.5]decan-1-one], the figure is 7.52; as for `O=C1N(c2ccc(OCC(F)(F)F)cc2)CC[C@]12CC[C@@](O)(COCCC1CC1)CC2` [Example 290, (5α,8α)-8-(2-Cyclopropyl-ethoxymethyl)-8-hydroxy-2-[4-(2,2,2-trifluoro-ethoxy)-phenyl]-2-aza-spiro[4.5]decan-1-one], 7.70; as for `CC(O)C1CCC2(CC1)CCN(c1ccc(C(C)(C)C)cc1)C2=O` (stereo not drawn) [Example 357, (5α,8β)-2-(4-tert-Butyl-phenyl)-8-(1-hydroxy-ethyl)-2-aza-spiro[4.5]decan-1-one], 7.30. Under `CCOC[C@]1(O)CC[C@]2(CCN(c3ccc(OCC(F)(F)F)nc3)C2=O)CC1` [Example 247, (5α,8α)-8-Ethoxymethyl-8-hydroxy-2-[6-(2,2,2-trifluoro-ethoxy)-pyridin-3-yl]-2-aza-spiro[4.5]decan-1-one] stands 7.15; under `C[C@H](Oc1ccc(N2CC[C@]3(CC[C@](O)(COCC(F)F)CC3)C2=O)cc1)C(F)(F)F` [Example 298, (5α,8β)-8-(2,2-Difluoro-ethoxymethyl)-8-hydroxy-2-[4-((S)-2,2,2-trifluoro-1-methyl-ethoxy)-phenyl]-2-aza-spiro[4.5]decan-1-one], 6.23; under `CCCOC[C@]1(O)CC[C@]2(CCN(c3ccc(OCC(F)(F)F)nc3)C2=O)CC1` [Example 267, (5α,8α)-8-Hydroxy-8-propoxymethyl-2-[6-(2,2,2-trifluoro-ethoxy)-pyridin-3-yl]-2-aza-spiro[4.5]decan-1-one], 7.52. As to `CCC[C@]1(O)CC[C@]2(CCN(c3ccc(CCOC)cc3)C2=O)CC1` [Example 122, (5α,8α)-8-Hydroxy-2-[4-(2-methoxy-ethyl)-phenyl]-8-propyl-2-aza-spiro[4.5]decan-1-one], the pIC50 was 7.30. As for `CSC[C@]1(O)CC[C@]2(CCN(c3ccc(OCC(F)(F)F)cc3)C2=O)CC1` [Example 293, (5α,8α)-8-Hydroxy-8-methylsulfanylmethyl-2-[4-(2,2,2-trifluoro-ethoxy)-phenyl]-2-aza-spiro[4.5]decan-1-one], the figure is 7.70. As for `CC(C)(C)S(=O)(=O)C[C@]1(O)CC[C@]2(CCN(c3ccc(OCC(F)(F)F)cc3)C2=O)CC1` [Example 322, (5α,8α)-8-Hydroxy-8-(2-methyl-propane-2-sulfonylmethyl)-2-[4-(2,2,2-trifluoro-ethoxy)-phenyl]-2-aza-spiro[4.5]decan-1-one], the figure is 7.70; as for `CCc1ccc(CCN2CC[C@]3(CC[C@@](O)(COC)CC3)C2=O)cc1` [Example 373, (5α,8α)-2-[2-(4-Ethyl-phenyl)-ethyl]-8-hydroxy-8-methoxymethyl-2-aza-spiro[4.5]decan-1-one], 7.15. As for `CCc1ccc(N2CC[C@]3(CC[C@@H](O)CC3)C2=O)cc1` [Example 5, (5α,8β)-2-(4-Ethyl-phenyl)-8-hydroxy-2-aza-spiro[4.5]decan-1-one], the pIC50 is 5.63. Under `CCO[C@H]1CC[C@@]2(CCN(c3ccc(OC(F)(F)F)cc3)C2=O)CC1` [Example 24, (5α,8β)-8-Ethoxy-2-(4-trifluoromethoxy-phenyl)-2-aza-spiro[4.5]decan-1-one] stands 6.43; under `O=C(NC1CC1)O[C@H]1CC[C@@]2(CCN(c3ccc(OC(F)(F)F)cc3)C2=O)CC1` [Example 29, Cyclopropyl-carbamic acid [(5α,8β)-1-oxo-2-(4-trifluoromethoxy-phenyl)-2-aza-spiro[4.5]dec-8-yl]ester], 7.10; under `CC(C)[C@]1(O)CC[C@@]2(CCN(c3ccc(O[C@@H](C)C(F)(F)F)nc3)C2=O)CC1` [Example 149, (5α,8β)-8-Hydroxy-8-isopropyl-2-[6-((S)-2,2,2-trifluoro-1-methyl-ethoxy)pyridin-3-yl]-2-aza-spiro[4.5]decan-1-one], 5.78.

On to `COc1ccc(N2CC[C@]3(CC[C@H](OCc4ccccc4)CC3)C2=O)cc1` [Example 40, (5α,8α)-8-Benzyloxy-2-(4-methoxy-phenyl)-2-aza-spiro[4.5]decan-1-one], for which the pIC50 was 5.34. As for `CCc1ccc(N2CC[C@]3(CC[C@H](OCc4ccccc4)CC3)C2=O)cc1` [Example 43, (5α,8α)-8-Benzyloxy-2-(4-ethyl-phenyl)-2-aza-spiro[4.5]decan-1-one], the figure is 6.13. Under `CCOC[C@]1(O)CC[C@]2(CCN(c3ccc(CC)cc3)C2=O)CC1` [Example 225, (5α,8α)-8-Ethoxymethyl-2-(4-ethyl-phenyl)-8-hydroxy-2-aza-spiro[4.5]decan-1-one] stands 7.22. As to `CCc1ccc(CCN2CC[C@]3(CC[C@H](O)CC3)C2=O)cc1` [Example 34, (5α,8α)-2-[2-(4-Ethyl-phenyl)-ethyl]-8-hydroxy-2-aza-spiro[4.5]decan-1-one], the pIC50 was 6.10. `CC(Oc1ccc(N2CCC3(CCC(O)CC3)C2=O)cc1)C(F)(F)F` (mixture of isomers) [Example 162, 8-Hydroxy-2-[4-(2,2,2-trifluoro-1-methyl-ethoxy)-phenyl]-2-aza-spiro[4.5]decan-1-one]: the pIC50 was 6.66. Under `CC(C)c1ccc(N2CC[C@]3(CC[C@H](O)CC3)C2=O)cc1` [Example 38, (5α,8α)-8-Hydroxy-2-(4-isopropyl-phenyl)-2-aza-spiro[4.5]decan-1-one] stands 6.62. `CC1(COC[C@]2(O)CC[C@]3(CCN(c4ccc(OCC(F)(F)F)cc4)C3=O)CC2)COC1` [Example 260, (5α,8α)-8-Hydroxy-8-(3-methyl-oxetan-3-ylmethoxymethyl)-2-[4-(2,2,2-trifluoro-ethoxy)-phenyl]-2-aza-spiro[4.5]decan-1-one]: the pIC50 was 7.22. On to `O=C1N(c2ccc(OC(F)(F)F)cc2)CC[C@]12CC[C@@H](Oc1ncccn1)CC2` [Example 20, (5α,8β)-8-(Pyrimidin-2-yloxy)-2-(4-trifluoromethoxy-phenyl)-2-aza-spiro[4.5]decan-1-one], for which the negative-log IC50 (pIC50) is 7.00.

Consider `CC(C)OC[C@]1(O)CC[C@]2(CCN(c3ccc(O[C@H](C)C(F)(F)F)nc3)C2=O)CC1` [Example 316, (5α,8α)-8-Hydroxy-8-isopropoxymethyl-2-[6-((R)-2,2,2-trifluoro-1-methyl-ethoxy)-pyridin-3-yl]-2-aza-spiro[4.5]decan-1-one], for which the pIC50 was 7.70. As for `O=C1N(c2ccc(OC(F)(F)F)cc2)CC[C@]12CC[C@H](O)CC2` [Example 2, (5α,8α)-8-Hydroxy-2-(4-trifluoromethoxy-phenyl)-2-aza-spiro[4.5]decan-1-one], the figure is 6.82.
